Tests used:
Format in all cases: biochemical
[1] = target: E. coli Riboflavin Synthase (Escherichia coli, UniProt P0AFU8); experiment: Riboflavin synthase kinetic inhibition assay; details: recombinant E. coli RS
[2] = target: M. tuberculosis Lumazine Synthase (Mycobacterium tuberculosis, UniProt P9WHE9); details: recombinant M. tuberculosis LS; for kcat (rate constant ES → E + P): fit of the compound's data set; for kcat (rate constant ES → E + P) / Kis (inhibitor dissociation constant, ES + I ⇌ ESI): pH 7.0; for Kis (inhibitor dissociation constant, ES + I ⇌ ESI): substrate 1 varied, 2 constant
M. tuberculosis Lumazine Synthase, sequence (P9WHE9 whole entry): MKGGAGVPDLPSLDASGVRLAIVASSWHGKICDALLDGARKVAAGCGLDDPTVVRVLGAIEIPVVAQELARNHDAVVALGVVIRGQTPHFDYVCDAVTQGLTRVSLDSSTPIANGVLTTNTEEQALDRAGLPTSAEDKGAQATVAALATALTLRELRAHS

[3] = target: T1, S. pombe Lumazine Synthase (Schizosaccharomyces pombe, UniProt Q9UUB1); experiment: Lumazine synthase kinetic inhibition assay; details: recombinant S. pombe LS; for kcat (rate constant ES → E + P): fit of the compound's data set; for kcat (rate constant ES → E + P) / Kis (inhibitor dissociation constant, ES + I ⇌ ESI): pH 7.0; for Kis (inhibitor dissociation constant, ES + I ⇌ ESI): substrate 1 varied, 2 constant
T1 sequence (Q9UUB1 1-159): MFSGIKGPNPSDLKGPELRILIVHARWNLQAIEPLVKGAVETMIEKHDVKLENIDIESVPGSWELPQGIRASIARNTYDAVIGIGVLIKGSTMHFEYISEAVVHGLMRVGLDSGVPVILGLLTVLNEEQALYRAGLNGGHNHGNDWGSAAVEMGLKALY

E. coli Riboflavin Synthase, sequence (P0AFU8 whole entry): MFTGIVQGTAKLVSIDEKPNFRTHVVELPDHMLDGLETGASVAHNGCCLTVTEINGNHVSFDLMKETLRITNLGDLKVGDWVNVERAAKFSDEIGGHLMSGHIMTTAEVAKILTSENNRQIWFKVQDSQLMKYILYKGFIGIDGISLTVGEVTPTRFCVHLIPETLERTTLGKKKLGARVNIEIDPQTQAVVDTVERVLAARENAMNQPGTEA

Molecule	Mode of inhibition [1]	kcat (rate constant ES → E + P) ([1]; fit of the compound's data set, pH 7.0) [s⁻¹]	Kis (inhibitor dissociation constant, ES + I ⇌ ESI) ([1]; pH 7.0) [µM]	Mode of inhibition [2]	kcat (rate constant ES → E + P) [2] [s⁻¹]	Kis (inhibitor dissociation constant, ES + I ⇌ ESI) [2] [µM]	Mode of inhibition [3]	kcat (rate constant ES → E + P) [3] [s⁻¹]	Kis (inhibitor dissociation constant, ES + I ⇌ ESI) [3] [µM]
5-Amino-(2-hydroxy-2-phenethyl)pyrimidine-2,4-(1H,3H)-dione [Compound 50]	Uncompetitive	0.07 ± 0.0017	788 ± 148	–	–	–	–	–	–
O=c1[nH]c(/C=C/c2ccccc2[N+](=O)[O-])c([N+](=O)[O-])c(=O)[nH]1 [Compound 14, (E)-6-(2-Nitrostyryl)-5-nitropyrimidine-2,4(1H,3H)-dione]	–	–	–	Partial	0.00517 ± 0.00017	49 ± 12	–	–	–
COc1ccccc1/C=C/c1[nH]c(=O)[nH]c(=O)c1[N+](=O)[O-] [Compound 19, (E)-6-(2-Methoxystyryl)-5-nitropyrimidine-2,4(1H,3H)-dione]	–	–	–	Partial	0.00537 ± 6.7e-05	44 ± 10	Mixed	0.0285 ± 0.00017	733 ± 227
COc1ccc(/C=C/c2[nH]c(=O)[nH]c(=O)c2[N+](=O)[O-])cc1O [Compound 20, (E)-6-(3-Hydroxy-4-methoxystyryl)-5-nitropyrimidine-2,4(1H,3H)-dione]	–	–	–	Mixed	0.00467 ± 0.00017	74 ± 12	Uncompetitive	0.0235 ± 0.00033	38 ± 2
COc1cccc(/C=C/c2[nH]c(=O)[nH]c(=O)c2[N+](=O)[O-])c1OC [Compound 21, (E)-6-(2,3-Dimethoxystyryl)-5-nitropyrimidine-2,4(1H,3H)-dione]	–	–	–	Mixed	0.0055 ± 0.00017	22 ± 6	Competitive	0.0368 ± 0.00033	–
COc1ccc(/C=C/c2[nH]c(=O)[nH]c(=O)c2[N+](=O)[O-])cc1OC [Compound 22, (E)-6-(3,4-Dimethoxystyryl)-5-nitropyrimidine-2,4(1H,3H)-dione]	–	–	–	Mixed	0.0055 ± 0.00017	32 ± 3	–	–	–
COc1ccc(/C=C/c2[nH]c(=O)[nH]c(=O)c2[N+](=O)[O-])c(OC)c1OC [Compound 23, (E)-6-(2,3,4-Trimethoxystyryl)-5-nitropyrimidine-2,4(1H,3H)-dione]	–	–	–	Mixed	0.00567 ± 0.00017	97 ± 24	–	–	–
COc1cc(/C=C/c2[nH]c(=O)[nH]c(=O)c2[N+](=O)[O-])cc(OC)c1OC [Compound 24, (E)-6-(3,4,5-Trimethoxystyryl)-5-nitropyrimidine-2,4(1H,3H)-dione]	–	–	–	Mixed	0.0045 ± 0.00017	37 ± 5	Uncompetitive	0.0233 ± 0.0005	47 ± 4
O=c1[nH]c(/C=C/c2cccc([N+](=O)[O-])c2)c([N+](=O)[O-])c(=O)[nH]1 [Compound 25, (E)-5-Nitro-6-(3-nitrostyryl)pyrimidine-2,4(1H,3H)-dione]	–	–	–	Mixed	0.0055 ± 0.00017	173 ± 50	Mixed	0.019 ± 0.00033	496 ± 219
O=c1[nH]c(/C=C/c2ccc([N+](=O)[O-])cc2)c([N+](=O)[O-])c(=O)[nH]1 [Compound 26, (E)-5-Nitro-6-(4-nitrostyryl)pyrimidine-2,4(1H,3H)-dione]	–	–	–	Mixed	0.0075 ± 0.00017	37 ± 17	Partial	0.0217 ± 0.00033	15 ± 5
O=C(O)c1ccc(/C=C/c2[nH]c(=O)[nH]c(=O)c2[N+](=O)[O-])cc1 [Compound 27, (E)-4-(2-(5-Nitro-2,6-dioxo-1,2,3,6-tetrahydropyrimidine-4-yl)vinyl)benzoic Acid]	–	–	–	Partial	0.00588 ± 6.7e-05	78 ± 38	Mixed	0.0232 ± 0.0005	187 ± 43
O=c1[nH]c(/C=C/c2ccccc2F)c([N+](=O)[O-])c(=O)[nH]1 [Compound 28, (E)-6-(2-Fluorostyryl)-5-nitropyrimidine-2,4(1H,3H)-dione]	–	–	–	Mixed	0.0045 ± 0.00017	13 ± 3	–	–	–
O=c1[nH]c(/C=C/c2ccc(Br)cc2)c([N+](=O)[O-])c(=O)[nH]1 [Compound 30, (E)-5-Nitro-6-(4-bromostyryl)pyrimidine-2,4(1H,3H)-dione]	–	–	–	Mixed	0.00567 ± 0.00017	234 ± 59	Uncompetitive	0.0205 ± 0.00017	604 ± 54
O=c1[nH]c(/C=C/c2ccc(Cl)cc2)c([N+](=O)[O-])c(=O)[nH]1 [Compound 31, (E)-6-(4-Chlorostyryl)-5-nitropyrimidine-2,4(1H,3H)-dione]	–	–	–	Mixed	0.00617 ± 0.00017	188 ± 38	–	–	–
COc1ccc([N+](=O)[O-])cc1/C=C/c1[nH]c(=O)[nH]c(=O)c1[N+](=O)[O-] [Compound 34, (E)-6-(2-Methoxy-5-nitrostyryl)-5-nitropyrimidine-2,4(1H,3H)-dione]	–	–	–	Mixed	0.00633 ± 0.00017	225 ± 59	Mixed	0.0182 ± 0.00033	682 ± 409
O=c1[nH]c(/C=C/c2ccc(O)c([N+](=O)[O-])c2)c([N+](=O)[O-])c(=O)[nH]1 [Compound 36, (E)-6-(4-Hydroxy-3-nitrostyryl)-5-nitropyrimidine-2,4(1H,3H)-dione]	–	–	–	Mixed	0.00617 ± 0.00017	461 ± 150	Uncompetitive	0.022 ± 0.00017	276 ± 16
O=C(O)c1ccc(/C=C/c2[nH]c(=O)[nH]c(=O)c2[N+](=O)[O-])c(O)c1 [Compound 37, (E)-3-Hydroxy-4-(2-(5-nitro-2,6-dioxo-1,2,3,6-tetrahydropyrimidine-4-yl)vinyl)benzoic Acid]	–	–	–	Mixed	0.00667 ± 0.00017	468 ± 113	Mixed	0.0273 ± 0.00033	921 ± 640
COc1cccc(/C=C/c2[nH]c(=O)[nH]c(=O)c2[N+](=O)[O-])c1F [Compound 38, (E)-6-(2-Fluoro-3-methoxystyryl)-5-nitropyrimidine-2,4(1H,3H)-dione]	–	–	–	Mixed	0.00583 ± 0.00017	89 ± 11	Mixed	0.0165 ± 0.00017	390 ± 90
O=c1[nH]c(C=Cc2ccccc2)c([N+](=O)[O-])c(=O)[nH]1 [Compound 39, 5-Nitro-6-styryluracil]	–	–	–	Partial	–	15 ± 4	Competitive	0.0367 ± 0.0017	–
O=c1[nH]c(/C=C/c2cccnc2)c([N+](=O)[O-])c(=O)[nH]1 [Compound 42, (E)-5-Nitro-6-(3-(pyridine-3-yl)vinyl)pyrimidine-2,4(1H,3H)-dione]	–	–	–	Partial	0.007 ± 0.00017	24 ± 10	–	–	–
O=c1[nH]c(NCc2ccccc2)c([N+](=O)[O-])c(=O)[nH]1 [Compound 45, 6-(Benzylamino)-5-nitropyrimidine-2,4(1H,3H)-dione]	–	–	–	Uncompetitive	0.00933 ± 0.00017	823 ± 128	–	–	–
O=c1[nH]c(NCc2ccccc2O)c([N+](=O)[O-])c(=O)[nH]1 [Compound 46, 6-(2-Hydroxybenzylamino)-5-nitropyrimidine-2,4(1H,3H)-dione]	–	–	–	Uncompetitive	0.0103 ± 0.00033	904 ± 193	–	–	–
O=C1OC(Cc2[nH]c(=O)[nH]c(=O)c2[N+](=O)[O-])c2ccccc21 (stereo not drawn) [Compound 49, 5-Nitro-6-[(3-oxo-1,3-dihydroisobenzofuran-1-yl)methyl]pyrimidine-2,4-(1H,3H)-dione]	–	–	–	–	–	–	Uncompetitive	0.0187 ± 0.00033	154 ± 13
